Data on 1 molecule can be found in paper PMC10017709, “Structural basis of selective cannabinoid CB2 receptor activation” (Nature Communications, 2023).

The test system of this assay is cisplatin-induced nephropathy. The assay is described as follows: Cisplatin-induced nephropathy in wild type mice. The conditions noted are these: for BUN / CREA: 72 h; for BUN / CREA / HNE (HNE adducts, ELISA) / NT (protein nitration, ELISA) / IL1b expression (real-time PCR) / TNFa expression (real-time PCR): mean, n = 6; for HNE (HNE adducts, ELISA) / NT (protein nitration, ELISA) / IL1b expression (real-time PCR) / TNFa expression (real-time PCR): kidney; for HNE (HNE adducts, ELISA) / NT (protein nitration, ELISA): vehicle mean 1.0; for IL1b expression (real-time PCR) / TNFa expression (real-time PCR): vehicle mean 1.00. In kind it is in vivo, C57BL/6J mice. The protocol: Ten to twelve-week-old male/female C57BL/6J mice were obtained from The Jackson Laboratory (Bar Harbor, ME, USA). CB2R knockout mice (CB2R^−/−) and their wild-type littermates (CB2R^+/+) were developed as described previously and had been backcrossed to a C57BL/6J background. All animals were kept in a temperature-controlled environment (20–22 °C) with a 12 h light–dark cycle and were always allowed free access to food and water. All animal experiments reported in this manuscript complied with the National Institutes of Health “Guide for the Care and Use of Laboratory Animals” (NIH publication 86–23 revised 1985) and were approved by the Institutional Animal Care and Use Committee of the National Institute on Alcohol Abuse and Alcoholism (Bethesda, MD).
The well-established model of cisplatin-induced nephropathy was used[63]. Mice (CB2R^−/− and CB2R^+/+) were sacrificed 72 h after a single injection of cisplatin (cis-diamine platinum (II) dichloride (Sigma#P4394) 25 mg/kg i.p.; freshly dissolved in physiological saline) by cervical dislocation under deep anesthesia with 5% isoflurane, for collection of blood and tissue samples. LEI-102 was given i.p. or by oral gavage (p.o.) at 0.3, 3.0, and 10 mg/kg every day, starting 1.5 h before the cisplatin exposure. The drug was dissolved in a vehicle of DMSO:Tween 80:saline, 1:1:18. After administration of LEI‐102, mice were killed by cervical dislocation under deep anesthesia with 5% isoflurane, for collection of blood and tissue samples at the time described in the figure. The tetrad assay in mice has previously been described in detail.
Markers of kidney dysfunction (BUN and CREA), histopathology (PAS staining), immunostaining or ELISA for 3-nitrotyrosine (3-NT; Cell Biolabs #STA-305) and 4-hydroxynonenal (4-HNE; Cell Biolabs#STA-838), and real-time PCR (Primers from Qiagen, SYBER Green Vita Scientific#MEIF01301, High-Capacity cDNA Reverse Transcription Kit, Thermo Fisher Scientific#4368813) for inflammatory cytokines were performed as previously described. Tubular damage scores were determined based on the percentage of tubules showing epithelial necrosis where 0= normal; 1, <10%; 2, 10–25%; 3, 26–75%; 4, >75%. Tubular necrosis was defined as the loss of the proximal tubular brush border, blebbing of apical membranes, tubular epithelial cell detachment from the basement membrane, or intraluminal aggregation of cells and proteins. The morphometric examination was performed in a blinded manner. Ten fields were scored from each mouse kidneys at 200× magnification, and average scores were determined for each mouse. For final quantification graph, average tubular damage scores of six mice/group were plotted.

Regarding `CC(C)CN1C(=O)CN(Cc2ccc(-c3ccc(F)c(CNC4CCOCC4)n3)cc2)C1=O` [LEI-102, 1-(4-(5-fluoro-6-(((tetrahydro-2H-pyran-4-yl)amino)methyl)pyridin-2-yl)benzyl)-3-isobutylimidazolidine-2,4-dione], the BUN (Cis + LEI-102 i.p. 0.3 mg/kg every day) worked out at 143.0 mg/dL. Further, where the note is “Cis + LEI-102 i.p. 0.3 mg/kg”, the CREA worked out at 1.6 mg/dL. Also, under “Cis + LEI-102 i.p. 3 mg/kg”, the BUN stood at 32.8 mg/dL and the CREA amounted to 0.7 mg/dL. In addition, where the note is “Cis + LEI-102 i.p. 10 mg/kg”, the BUN was determined as 24.8 mg/dL; the CREA is reported as 0.6 mg/dL; the “HNE (HNE adducts, ELISA)” value is 2.7; the “NT (protein nitration, ELISA)” value is given as 2.4. Moreover, where the note is “Cis + LEI-102 i.p. 10 mg/kg”, the “IL1b expression (real-time PCR)” value was determined as 1.90 and the “TNFa expression (real-time PCR)” value is listed as 1.59. For the setting “Cis + LEI-102 p.o. 3 mg/kg”, the BUN was found to be 53.5 mg/dL and the CREA was 1.0 mg/dL. Where the note is “Cis + LEI-102 p.o. 10 mg/kg”, the BUN was determined as 31.8 mg/dL; the CREA came out at 0.53 mg/dL; the “HNE (HNE adducts, ELISA)” value worked out at 2.4; the “NT (protein nitration, ELISA)” value is 2.8. Moreover, where the note is “Cis + LEI-102 p.o. 10 mg/kg”, the “IL1b expression (real-time PCR)” value is given as 2.71 and the “TNFa expression (real-time PCR)” value amounted to 1.42. Moreover, for the setting “LEI-102 10 mg/kg by i.p. or p.o.”, the “lipid peroxidation and protein nitration in kidney” value is on record as “decreased”. For the same molecule, the “functional markers of cisplatin-induced kidney injury (serum creatinine, blood urea nitrogen)” value (LEI-102 p.o. or i.p., 72 h after cisplatin 25 mg/kg i.p.) is “dose-dependent attenuation”. For the same molecule, the “pro-inflammatory cytokines TNFα and IL1β elevated by cisplatin-induced injury” value (LEI-102 treated mice) is “attenuated”.
